For the experiment, the target named is T1, CsF3′H (Camellia sinensis, UniProt A0A0S2LLA9).
T1 construct: microsomes of Saccharomyces cerevisiae WAT11, which co-expresses an Arabidopsis thaliana P450 reductase; ORF amplified with its own stop codon, no tag stated
The experiment can be described thus: HPLC product formation with recombinant yeast microsomes. Type of experiment: biochemical. To be noted: 1.0 mM NADPH, 100 mM sodium phosphate pH 7.0, 30 °C, 30 min. An excerpt: HPLC product formation with recombinant yeast microsomes on CsF3′H

Molecules are shown by their SMILES. Like-named read-outs stand apart in the source and are kept apart here.

T1 sequence (A0A0S2LLA9 entry or part of it): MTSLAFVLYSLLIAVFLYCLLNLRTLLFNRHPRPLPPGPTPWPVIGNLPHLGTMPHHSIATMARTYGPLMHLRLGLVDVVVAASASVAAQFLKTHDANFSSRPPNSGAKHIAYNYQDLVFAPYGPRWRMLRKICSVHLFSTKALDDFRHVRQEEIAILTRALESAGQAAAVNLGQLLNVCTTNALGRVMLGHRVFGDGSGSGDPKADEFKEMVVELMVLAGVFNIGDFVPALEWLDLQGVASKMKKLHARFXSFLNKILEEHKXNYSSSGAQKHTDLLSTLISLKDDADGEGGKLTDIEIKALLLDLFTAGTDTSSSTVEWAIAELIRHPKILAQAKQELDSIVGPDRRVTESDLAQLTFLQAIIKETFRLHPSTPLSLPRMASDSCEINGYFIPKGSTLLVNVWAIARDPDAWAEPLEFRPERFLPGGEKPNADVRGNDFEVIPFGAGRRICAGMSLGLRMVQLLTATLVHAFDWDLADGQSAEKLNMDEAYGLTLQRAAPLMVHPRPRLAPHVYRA

As to `O=C1c2c(O)cc(O)cc2OC(c2ccc(O)cc2)C1O` (racemic) [Dihydrokaempferol], the Km (racemic substrate, read-out: Dihydrokaempferol) was determined as 143.6 ± 0.69 µM. In the case of `O=C1CC(c2ccc(O)cc2)Oc2cc(O)cc(O)c21` (racemic) [Naringenin], the Km (racemic substrate, read-out: Naringenin) is 17.1 ± 0.46 µM. As to `O=c1c(O)c(-c2ccc(O)cc2)oc2cc(O)cc(O)c12` [Kaempferol], the Km (read-out: Kaempferol) came out at 68.06 ± 0.43 µM.

The values above are taken from article PMC4783990, “Cloning and Characterization of a Flavonoid 3′-Hydroxylase Gene from Tea Plant (Camellia sinensis)” (International Journal of Molecular Sciences, 2016).
